Data: patent US8742102B2, “Process for enantiomeric separation of racemic dihydro-1,3,5 triazines via preferential crystallization” (Poxel, priority 2009, dated 2014)

Assay: Concentration of saturated solution of racemic HCl salt in EtOH, determined by HPLC
Type: physicochemical
Procedure: A saturated solution of racemic HCl salt is prepared by heating 50 g of salt in EtOH (350 ml) to reflux. A clear solution is formed. This is allowed to cool to 40° C. The mixture is seeded with a slurry of racemic HCl salt.
Crystallization is observed. This is allowed to equilibrate overnight. The mixture is filtered into the reaction vessel (preheated to 40° C.). This is heated to 60° C. to ensure complete dissolution, cooled to 40° C. and sampled to determine the concentration by HPLC. This is then cooled to 13° C. in increments of 1° C./5 min. At 13° C. a small amount of crystallisation is observed. A seed sample is also added and this is allowed to equilibrate overnight. A sample is removed for concentration determination at 13° C.

SMILES: CC1N=C(N)NC(N(C)C)=N1 (racemic) [A1, 2-amino-3,6-dihydro-4-dimethylamino-6-methyl-1,3,5-triazine]
- Concentration of sat. solution at 40° C. (equilibrated at 40° C.): 92200 µg/mL
- Concentration at 13° C. (equilibrated overnight at 13° C.): 69740 µg/mL
